Four molecules from US20080090788A1, “Chemical Compounds” (priority 2005, published 2008) can be followed below.

The test system of assay [1] is NF-kB. The assay is described as follows: NF-kB luciferase reporter activity in LPS-stimulated U937-kBluc cells. In kind it is cell-based, human. Particulars: for IC50: Homo sapiens, U937-kBluc cells, LPS 0.3 μg/ml, 6 hours, mean of duplicate determinations ±SD, read-out: IC50 for inhibition of LPS-induced NF-kB activity. Here is the method: U937-kBluc cells were cultured in a 96 well plate (2×10^4 cells in 100 μl in each well) and stimulated with 0.3 μg/ml LPS (lipopolysaccaride; Sigma Aldrich). After 6 hours, cells were collected and luciferase activity determined using the luclite reagent (Perkin Elmer UK, Beaconsfield, UK) and a Packard TopCount (Perkin Elmer), as described by the manufacturer. To determine the effect of SFZ and analogues, various concentrations of each compound or an equivalent amount of DMSO as a solvent control were added 1 hour prior to addition of LPS. Each determination was made in triplicate. A cell line containing an NF-kB reporter construct was used to determine the effects of SFZ analogues on NF-kB activity. Cells were treated with LPS to induce NF-kB activity in the presence or absence of each compound, or DMSO as a solvent control, and luciferase activity analysed as a measure of NF-kB dependent transcription (FIG. 1). […] U937-kBluc cells were treated with LPS to activate NF-kB in the presence of increasing concentrations of SFZ, derivatives (3a-f), or DMSO as a solvent control. For each concentration of compound, the percentage inhibition of luciferase activity relative to cells treated with an equivalent amount of DMSO was calculated. (A) Representative dose response experiment (♦, 3a; ▪, SFZ). Each data point is the mean of triplicate samples (±SEM). (B) Detailed dose response assays were performed for compounds which gave >50% inhibition at 2 mM. The mean IC50 value (±SD) for inhibition of LPS-induced NF-kB activity is derived from 2 independent experiments, each performed in triplicate.

For assay [2], the system named is ARH77 cells. The assay is described as follows: Cell death in ARH77 cells, propidium iodide flow cytometry. Format: cell-based. Particulars: Homo sapiens, ARH-77; 20 hours, PI uptake; mean of two determinations ±SD; read-out: IC50 for induction of ARH77 cell death. Here is the method:
A flow cytometry method was used to determine the ability of SFZ analogues to induce cell death in ARH77 cells. The proportion of cells that had lost plasma membrane integrity was used as a measure of cell viability. ARH77 (5×10^4) cells were incubated in a volume of 200 μl in 96 well plates with compound, an equivalent amount of DMSO or were left untreated as a control. After 20 hours, cells were washed in phosphate buffered saline (PBS), resuspended in PBS containing 1 μg/ml propidium iodide (PI) for 10 minutes. Cells were analysed using a FACSCalibur (BD Biosciences, Oxford, UK) using the FL2 channel. […] The proportion of cells with intense fluorescence as a proportion of total cells was calculated.
To assess cell death promoting activity, the ability of SFZ and the analogues with enhanced NF-kB inhibiting activity (3a, 3e and 3f) to kill Epstein-Barr virus transformed human B-cells, which are dependent on NF-kB for survival was compared (Cahir-McFarland E D, Carter K, Rosenwald A, et al. Role of NF-kB in cell survival and transcription of latent membrane protein 1-expressing or Epstein-Barr virus latency III-infected cells. J Virol 2004; 78: 4108-4119). […] Dose response experiments were performed to determine IC50 values (FIG. 4b).
ARH77 cells were incubated with various concentrations of SFZ, compounds 3a, 3e and 3f, DMSO as a solvent control, or were left untreated. […] (A) Representative histogram of fluorescence in untreated, DMSO or compound 3e (250 μM) treated cells. (B) Representative dose response experiment (□, untreated; ♦, DMSO; ▴, SFZ; ●, 3a; +, 3e; ×, 3f). Each data point is the mean of duplicate determinations (±SD). (C) Mean IC50 values (±SD) for induction of ARH77 cell death, derived from two independent experiments each performed in duplicate.

Assay [3] has as its system IkB-α promoter. Put plainly: IkB-α promoter luciferase activity in transfected activated HSC. In kind it is cell-based. Particulars: 24 hours, rat HSC; for inhibition of IkB-α promoter activity compared with SFZ 1 mM: 3a 0.150 mM, 3e 0.127 mM, 3f 0.089 mM (at IC50). Here is the method: For HSC transfections, activated HSC were transfected by the non-liposomal Effectene protocol (Qiagen, UK) using 1 μg reporter plasmid DNA and 10 ng of control Renilla plasmid pRLTK (Promega, Southampton, UK) according to the manufacturer's instructions. After 24 hours, HSC were treated with test compounds for a further 24 hours. Luciferase assays were performed using a dual luciferase kit (Promega) according to the manufacturer's instructions. Firefly luciferase activities were normalised for differences in transfection efficiency by measurement of the activity of the co-transfected pRLTK. The pIκBα wt-Luc plasmid contains nucleotides −332 to +35 of the human IkB-α promoter cloned upstream of luciferase gene (Oakley F, et al, J Biol Chem 2003; 278: 24359-70). The pTIMP1-Luc plasmid contains the 162 bp human TIMP1 minimal promoter cloned upstream of luciferase gene (Bertrand-Philippe M, et al. J Biol Chem 2004; 279: 24530-9). The pAP1-Luc plasmid (Stratagene, UK) contains 7 copies of a consensus AP-1 binding site upstream of the minimal promoter and the luciferase gene.
To extend these findings, further analyses were performed using the […] promoter which contains multiple NF-kB binding sites and is a well studied NF-kB target. […] Consistent with the presence of activated NF-kB in HSC, (Wright M C et al, Gastroenterology 2001; 121: 685-98.) the IkB-α promoter was activated in HSC (FIG. 2a). SFZ (1 mM) inhibited promoter activity by >60%. […] Therefore, the improved inhibitory activity of analogues 3a, 3e and 3f is specific for NF-kB mediated transcription and is not restricted to U937 cells or artificial promoter constructs.
Rat HSC were transfected with (A) IkB-α-Luc, (B) TIMP1-Luc or (C) pAP-1-Luc reporter constructs. After 24 hours, cells were treated with sulfasalazine (1 mM), 3a (0.150 mM), 3e (0.127 mM), 3f (0.089 mM), or treated with DMSO as a control. Luciferase activity was determined after another 24 hours. Data presented are mean luciferase activity (±SEM) relative to control cells (value set to 100), derived from two separate experiments, each performed in duplicate and using an independent preparation of HSC.

The term IC50 denotes the point on the concentration scale where inhibition reaches its midpoint. By inhibition is commonly meant how much of the control response was suppressed. A higher inhibition goes with strong suppression.

On to `COc1ccc(CNS(=O)(=O)c2ccc(/N=N/c3ccc(O)c(C(=O)O)c3)cc2)cc1` [Compound 3a, 2-hydroxy-5-[4-(4-methoxy-benzylsulfamoyl)-phenylazo]-benzoic acid], for which the results for the IC50 in assay [1] and in assay [2] were 150 ± 27 µM and 499 ± 93 µM, respectively. In addition, in assay [1] (NF-kB inhibition, LPS treated U937 cells), the “improved inhibitory activity relative to SFZ” value turned out to be 7 fold. The “inhibition of IkB-α promoter activity compared with SFZ 1 mM” value (“inhibition … compared with SFZ 1 mM” below) in assay [3] is reported as “approximately equally effective”.

Take `Cc1cc(/N=N/c2ccc(S(=O)(=O)NCc3ccc(C(F)(F)F)cc3)cc2)cc(C(=O)O)c1O` [Compound 3e, 2-hydroxy-3-methyl-5-[4-(4-trifluoromethyl-benzylsulfamoyl)-phenylazo]-benzoic acid]: the IC50 in assay [1] was determined as 127 ± 19 µM; in assay [2], 195 ± 38 µM. Further, in assay [3], the “inhibition … compared with SFZ 1 mM” value is given as “approximately equally effective”.

`O=C(O)c1cc(/N=N/c2ccc(S(=O)(=O)NCc3ccc(C(F)(F)F)cc3)cc2)ccc1O` [Compound 3f, 2-hydroxy-5-[4-(4-trifluoromethyl-benzylsulfamoyl)-phenylazo]-benzoic acid]: the figures for the IC50 in assay [1] and in assay [2] were 89 ± 26 µM and 407 ± 11 µM, respectively. For the same molecule, the “inhibition … compared with SFZ 1 mM” value in assay [3] is reported as “approximately equally effective”.

For the molecule `O=C(O)c1cc(/N=N/c2ccc(S(=O)(=O)Nc3ccccn3)cc2)ccc1O` [SFZ, Sulfasalazine, reference compound], the figures for the half-maximal inhibitory concentration (IC50) in assay [1] and in assay [2] were 1190 ± 96 µM and 1100 ± 250 µM, respectively. Also, the inhibition at 1000 µM in assay [3] (SFZ 1 mM) was more than 60%.
